Data taken from PMC9740789, “Investigation of In Vitro and In Vivo Metabolism of α-Amanitin in Rats Using Liquid Chromatography-Quadrupole Time-of-Flight Mass Spectrometric Method” (Molecules, 2022).

How the values were obtained:
[1] = In vitro metabolic stability in rat liver microsomes; format: in vitro ADME
Procedure: (§1) In vitro stability of α-amanitin at liver microsomal system was evaluated by a LC-qTOF-MS. The remaining % represents the percentage of the sample (α-amanitin) peak area to the internal standard (verapamil) peak area.
(§2) The in vitro half-life (T1/2) and the in vitro intrinsic clearance (CLint, in vitro) were calculated by using the slope (k) of the graph shown in Figure 3. The calculation formula is shown in Equations (1) and (2). (1) T1/2=ln2/k (2) CLint,in vitromL/min/mg=k×microsomal volume mL/microsomal protein mg
(§3) The concentration of liver microsomes (microsomal volume/microsomal protein) used in the experiment was 0.5 mL/mg. The obtained CLint, in vitro was used to calculate in vivo intrinsic clearance (CLint, in vivo). The equations for calculating CLint, in vivo is shown at Equation (3):(3) CLint,in vivomL/min/kg=CLint,in vitro×mg microsomal protein/g liver weight×(g liver weight/kg body weight)
(§4) The ratio of mg microsomal protein to g liver weight was 44.8 and 48.8 in rat and human, respectively. And the ratio of g liver weight/kg body weight was 40 and 25.7 in rat and human, respectively. The hepatic clearance (CLh) was calculated from CLint, in vivo in a well-stirred model using the following Equation (4):(4) CLhmL/min=(Qh×CLint,in vivo/Qh+CLint,in vivo)
(§5) Qh (mL/min/kg), the hepatic blood flow, is known to be 55.2 and 20.7 mL/min/kg in rat and human, respectively. As a result, α-amanitin has a low hepatic clearance according to the aforementioned well-stirred model.
(§6) A metabolic stability test of α-amanitin was performed in rat and human liver microsomes. Cofactors (NADPH regenerating system solution A and B), compound (100 μg/mL of α-amanitin), 0.5 M potassium phosphate buffer with pH 7.4, and DW were mixed and pre-incubated for 5 min at 37 °C. After the pre-incubation, 12 μL of rat or human liver microsome (20 mg/mL each) was added to a 468 μL of pre-incubated cofactor mixture and the mixture was incubated for 0, 15, 30, and 60 min. After the incubation for each time point, 100 μL of the mixture was aliquoted to a 1.5 mL E-tube at each time point and 100 μL of 50% ACN in MeOH which containing 250 ng/mL of verapamil as an internal standard for protein precipitation was added for stopping the reaction. Then the mixture was centrifuged at 10,000 rpm for 5 min. Then 180 μL of the supernatants was collected in a fresh E-tube and evaporated for 3 h. After evaporation, samples were reconstituted with 150 μL of 50% MeOH with 5 mM ammonium formate. After centrifugation at 10,000 rpm for 5 min, 140 μL of reconstituted sample was transferred to a LC-vial.

[2] = In vitro metabolic stability in human liver microsomes; format: in vitro ADME
Procedure: as §1, §2, §3, §4, §5, §6

[3] = In vitro MetID in CLM and HLM; format: in vitro ADME, cynomolgus monkey, human; conditions: in vitro MetID with GSH in liver microsomes of 5 species
Procedure: Therefore, in vitro and in vivo MetID were conducted to explore any possible different metabolites between the two systems. The in vitro and in vivo MetID samples were analyzed by a LC-qTOF-MS, and the data were used to elucidate a metabolite of α-amanitin using PeakView® and MetabolitePilot™. The structure of the metabolite of α-amanitin was predicted by MetabolitePilot™. The fragmentation pattern of the predicted metabolite ion from product ion scan was compared to the fragmentation pattern of the parent ion using PeakView®.
In vitro MetID was conducted in 5 species (mouse, rat, cynomolgus monkey, dog, and human) of liver microsomes. Cofactors (NADPH solution A and B, 5 mM UDPGA, and 0.5 mM GSH), compound (2 mg/mL of α-amanitin), and DW were mixed and pre-incubated for 5 min at 37 °C. After the pre-incubation, 20 μL of liver microsome (20 mg/mL) was added to 380 μL of cofactor mixture and incubated for 0 and 120 min at 37 °C. After the incubation for each time point, 150 μL of the mixture was transferred to 450 μL of 50% ACN in MeOH for stopping the reaction. Then the mixture was centrifuged at 10,000 rpm for 5 min. Then 550 μL of the supernatant was collected in a fresh E-tube and evaporated for 4 h. After evaporation, samples were reconstituted with 60 μL of 50% MeOH with 5 mM ammonium formate. […]

SMILES: CC[C@H](C)[C@@H]1NC(=O)CNC(=O)[C@@H]2Cc3c([nH]c4cc(O)ccc34)[S@+]([O-])C[C@H](NC(=O)CNC1=O)C(=O)N[C@@H](CC(N)=O)C(=O)N1C[C@H](O)C[C@H]1C(=O)N[C@@H]([C@@H](C)[C@@H](O)CO)C(=O)N2 [α-amanitin]
- remaining at 0.25 h ([1]; rat liver microsomes, 15 min incubation, NADPH regenerating system, potassium phosphate buffer pH 7.4, 37 °C, 5 min pre-incubation, LC-qTOF-MS): 94.2 ± 8.6%
- remaining at 0.5 h ([1]; rat liver microsomes, 30 min incubation, NADPH regenerating system, potassium phosphate buffer pH 7.4, 37 °C, 5 min pre-incubation, LC-qTOF-MS): 93.1 ± 8.64%
- remaining at 1 h ([1]; rat liver microsomes, 60 min incubation, NADPH regenerating system, potassium phosphate buffer pH 7.4, 37 °C, 5 min pre-incubation, LC-qTOF-MS): 90.3 ± 4.37%
- half-life ([1]; rat liver microsomes, in vitro half-life, ln2/k from slope of ln(Remaining %) vs incubation time 0-60 min, NADPH, pH 7.4, 37 °C): 7.45 h
- CLint, In Vitro ([1]; rat liver microsomes, k × microsomal volume/microsomal protein (0.5 mL/mg as printed)): <10 µL/min/mg
- CLh ([1]; rat, predicted hepatic clearance, well-stirred model, Qh 55.2 mL/min/kg): 5.05 mL/min/kg
- CLint, In Vivo ([1]; rat, scaled from CLint, in vitro with 44.8 mg microsomal protein/g liver and 40 g liver/kg body weight): 5.56 mL/min/kg
- remaining at 0.25 h ([2]; human liver microsomes, 15 min incubation, NADPH regenerating system, potassium phosphate buffer pH 7.4, 37 °C, 5 min pre-incubation, LC-qTOF-MS): 89.2 ± 5.72%
- remaining at 0.5 h ([2]; human liver microsomes, 30 min incubation, NADPH regenerating system, potassium phosphate buffer pH 7.4, 37 °C, 5 min pre-incubation, LC-qTOF-MS): 85.1 ± 5.52%
- remaining at 1 h ([2]; human liver microsomes, 60 min incubation, NADPH regenerating system, potassium phosphate buffer pH 7.4, 37 °C, 5 min pre-incubation, LC-qTOF-MS): 82.6 ± 3.96%
- half-life ([2]; human liver microsomes, in vitro half-life, ln2/k from slope of ln(Remaining %) vs incubation time 0-60 min, NADPH, pH 7.4, 37 °C): 3.93 h
- CLint, In Vitro ([2]; human liver microsomes, k × microsomal volume/microsomal protein (0.5 mL/mg as printed)): <10 µL/min/mg
- CLh ([2]; human, predicted hepatic clearance, well-stirred model, Qh 20.7 mL/min/kg): 5.43 mL/min/kg
- CLint, In Vivo ([2]; human, scaled from CLint, in vitro with 48.8 mg microsomal protein/g liver and 25.7 g liver/kg body weight): 7.36 mL/min/kg
- Reactive metabolites (GSH adducts) [3]: no reactive metabolites with GSH adducts were detected
